# Source: PMC7114187 (Antiviral Research, 2008)
# Where a name gives a salt, the structure may show the parent alone. Read-outs that look alike come from different tables or passages of the source.
# Legend:
# [1] = system: influenza neuraminidase (NA), inactivated viral suspensions of influenza A/Udorn/72 (H3N2); format: biochemical
# influenza viruses = experiment: microbe, parasite or virus in culture; format: cell-based, influenza virus; conditions: for inhibition at 10 µM: read-out: inhibition of CPE at 10 μM
# [2] = system: influenza A/WSN/33 (H1N1); experiment: microbe, parasite or virus in culture; format: cell-based; conditions: read-out: EC50 viral plaque formation
# NIBRG-14 (H5N1) = experiment: microbe, parasite or virus in culture; format: cell-based, influenza NIBRG-14 (H5N1); conditions: read-out: EC50 viral plaque formation
# [3] = system: influenza A/WSN/33 (H1N1); format: cell-based
# [4] = system: influenza A/Udorn/72 (H3N2); experiment: microbe, parasite or virus in culture; format: cell-based; conditions: read-out: EC50 viral plaque formation
# in vitro = conditions: dog
# SARS-CoV = conditions: cited from earlier work
# [5] = molecular target: NA in inactivated viral suspension of influenza A/Udorn/72 (H3N2) (Influenza A virus (H3N2), UniProt P0DOF6); format: biochemical; conditions: read-out: IC50 NA inhibition
# [6] = molecular target: influenza A/WSN/33 (H1N1) polymerase complex (PA, PB1, PB2, NP) (Influenza A virus, UniProt P03427+P03430+P15659); format: cell-based
# [7] = read-out: CPE inhibition IC50 (<10 μM), symbol
# [8] = unidentified influenza virus, MDCK, 72 h, read-out: CPE inhibition IC50 (<10 μM)
# [9] = unidentified influenza virus, MDCK
structure (smiles),measurement,setting,value
O=C(O[C@@H]1Cc2c(O)cc(O)cc2O[C@@H]1c1cc(O)c(=O)c2c(O)c(O)cc([C@H]3Oc4cc(O)cc(O)c4C[C@H]3OC(=O)c3cc(O)c(O)c(O)c3)c2c1)c1cc(O)c(O)c(O)c1 [Theaflavin digallate],NA activity inhibition at 50 μM (%),[1],61.5%
O=C(O)c1cc(O)c2c(c1)[C@H]([C@H]1c3cc(C(=O)O)cc(O)c3C(=O)c3c(O[C@@H]4O[C@H](CO)[C@@H](O)[C@H](O)[C@H]4O)cccc31)c1cccc(O[C@@H]3O[C@H](CO)[C@@H](O)[C@H](O)[C@H]3O)c1C2=O [Sennoside A],NA activity inhibition at 50 μM (%),[1],61.9%
N#Cc1c(Cl)c(Cl)c(Cl)c(C#N)c1Cl [Tetrachloroisophthalonitrile],NA activity inhibition at 50 μM (%),[1],76.9%
same,IC50,influenza viruses; [7],> 10 µM
O=c1c(O)c(-c2cc(O)c(O)c(O)c2)oc2cc(O)cc(O)c12 [Myricetin],NA activity inhibition at 50 μM (%),[1],61.6%
COC(=O)C(N)CS (stereo not drawn) [Mecysteine hydrochloride],NA activity inhibition at 50 μM (%),[1],51.3%
O=C(O[C@@H]1Cc2c(O)cc(O)cc2O[C@@H]1c1cc(O)c(O)c(O)c1-c1c([C@H]2Oc3cc(O)cc(O)c3C[C@H]2OC(=O)c2cc(O)c(O)c(O)c2)cc(O)c(O)c1O)c1cc(O)c(O)c(O)c1 [2′2′-Bisepigallocatechin digallate],NA activity inhibition at 50 μM (%),[1],60.6%
same,IC50,influenza viruses; [7],> 10 µM
same,CC50,MDCK cells,> 50 µM
CCOC(=O)C1=C(O)C(=O)N(Cc2ccccc2)C1 [Ethyl1-benzyl-3-hydroxy-2-oxo(5H)pyrrole-4-carboxylate],NA activity inhibition at 50 μM (%),[1],71.9%
Cc1cnc(NC(=O)C2=C(O)c3ccccc3S(=O)(=O)N2C)s1 [Meloxicam],NA activity inhibition at 50 μM (%),[1],62.1%
CCCc1ncc(C[n+]2ccccc2C)c(N)n1 [Amprolium],NA activity inhibition at 50 μM (%),[1],95.0%
COc1ccc(-c2cc(=O)c3c(O)cc(O)cc3o2)cc1O [Diosmetin],NA activity inhibition at 50 μM (%),[1],59.0%
Cc1cc(=O)c2c(o1)-c1c(cc(O)c(O)c1C(=O)O)OC2 [Citromycetin],NA activity inhibition at 50 μM (%),[1],46.8%
same,IC50,influenza viruses; [7],> 10 µM
"CCC(CC)O[C@@H]1C=C(C(=O)O)C[C@H](N)[C@H]1NC(C)=O [GS4071, Oseltamivir carboxylate]",EC50,[2],~0.04 µM
same,reduction in the yield of progeny virus,[3],no reduction
same,reduction of the viral yield,[3],effective to reduce the viral yield
same,NA activity inhibition at 50 μM (%),[1],100.0%
same,EC50,[4],~0.04 µM
same,CC50,in vitro,> 25 µM
same,IC50,influenza viruses; read-out: CPE inhibition IC50 (<10 μM),0.1 µM
CC(=O)N1CCN(c2ccc(OCC3COC(Cn4ccnc4)(c4ccc(Cl)cc4Cl)O3)cc2)CC1 (stereo not drawn) [Ketoconazole],NA activity inhibition at 50 μM (%),[1],72.2%
CC1(C)OCC(C2OC(=O)C(O)=C2O)O1 (stereo not drawn) [Ascorbic acid acetonide],NA activity inhibition at 50 μM (%),[1],83.5%
same,IC50,influenza viruses; [7],> 10 µM
O=C(/C=C/c1ccc(O)cc1)c1ccc(O)cc1O [Isoliquiritigenin],NA activity inhibition at 50 μM (%),[1],62.6%
CCc1ccc2c(O)c3c(cc2c1C(=O)OC)C(=O)c1c(O)ccc(O)c1C3=O [Bisanhydrorutilantinone],NA activity inhibition at 50 μM (%),[1],71.9%
C1CNCCN1 [Piperazine],NA activity inhibition at 50 μM (%),[1],100.0%
CO[C@H]1C[C@H](O[C@H]2CC[C@]3(C)[C@H]4CC[C@]5(C)[C@@H](C6=CC(=O)OC6)CC[C@]5(O)[C@@H]4CC[C@]3(O)C2)O[C@H](C)[C@H]1O [Periplocymarin],NA activity inhibition at 50 μM (%),[1],75.2%
same,CC50,in vitro,< 50 µM
same,IC50,influenza viruses; [8],0.3 µM
same,inhibition at 10 µM,influenza viruses; [9],> 50%
S=C=NCc1ccccc1 [Benzyl isothiocyanate],NA activity inhibition at 50 μM (%),[1],75.5%
"O=C(O)C1=CC(=C(c2ccc(O)c(C(=O)O)c2)c2ccc(O)c(C(=O)O)c2)C=CC1=O [ATA, aurintricarboxylic acid]",EC50,"[2]; Influenza A virus, H1N1|WSN, MDCK",4.1 µM
same,EC50,"NIBRG-14 (H5N1); Influenza A virus, H5N1, MDCK",5.4 µM
same,reduction of the viral yield,[3],> 1000 fold
same,reduction of the yield of influenza progeny virus,[3],only marginal activity
same,NA activity inhibition at 50 μM (%),[1],100.0%
same,EC50,"[4]; Influenza A virus, H3N2, MDCK",6.3 µM
same,EC50 for SARS-CoV,SARS-CoV,200 µg/mL
same,CC50,in vitro,95.5 µM
same,IC50,influenza viruses; [8],9.4 µM
same,inhibition at 10 µM,influenza viruses; [9],> 50%
same,IC50,[5],13.8 µM
same,inhibition of RdRp-derived expression of CAT,[6],did not inhibit
CC(=O)[C@@]1(O)CC[C@H]2[C@@H]3C=C(Cl)C4=CC(=O)[C@@H]5C[C@@H]5[C@]4(C)[C@H]3CC[C@@]21C [Cyproterone],NA activity inhibition at 50 μM (%),[1],55.7%
same,IC50,influenza viruses; [7],> 10 µM
